Measurements from patent US20250302846A1, “ANTIBIOTIC COMPOSITION AND METHODS OF USE THEREOF” (THE REGENTS OF THE UNIVERSITY OF COLORADO A BODY CORPORATE, priority 2022, published 2025).
Where “and” joins values, the source holds several entries; their conditions need not be identical. Equal entries are not always repeated.

Legend:
[1] = test system: S. Typhimurium SL1344 or 14028 in HeLa cells; assay: CFU assay in infected HeLa cells; type: cell-based
Procedure: FIG. 1A-D. D66 is a small molecule that prevents S. Typhimurium replication and/or survival in macrophages. A). Structure of D66. B) RAW264.7 macrophage-like cells were infected with S. Typhimurium harboring a chromosomal sifB: : gfp reporter, treated with DMSO or D66 at two hours after infection, and monitored for bacterial accumulation (GFP+Macrophage Area) over 16 hours using the SAFIRE (Screen for Anti-infectives using Fluorescence microscopy of Intracellular Enterobacteriaceae) assay. The IC50 value is indicated. Mean and SD of biological duplicates with technical duplicates across 9 dilutions of D66. C, D) CFU assays were performed with RAW264.7 or HeLa cells infected with S. Typhimurium SL1344 or 14028 for two hours and treated for 16 hours with DMSO or 1.5-fold dilutions of D66, prior to lysis and plating for CFU. Symbols on the Y-axes are the CFU value from DMSO-treated samples. The IC50 values are indicated. Mean and SEMs of biological triplicates with technical duplicates across 8 dilutions of D66.
CFU assays were performed with RAW 264.7 cells seeded as above or with Hela cells (ATCC CCL-2) seeded at 1x10^4 cells per 96-well. Cells were infected as described above with either S. Typhimurium SL1344 or 14028, as indicated at an approximate MOI of 30 bacteria per RAW 264.7 cell and 150 bacteria per HeLa cell. Plates were centrifuged and gentamicin treated as above. […]

S. Typhimurium = assay: Bacterial membrane potential assay with DiSC3(5); type: cell-based; details: mid-log cells in LB with PMB [0.5 μg/mL]; corrected for quenching by D66; JD1 [70 μM]
Procedure: FIG. 3A-F. D66 rapidly perturbs the bacterial cytoplasmic membrane with minor disruption of barrier function. Mid-log phase S. Typhimurium cells grown in LB with 0.5 μg/mL PMB were used for all experiments. A) Cell membrane potential was monitored with the fluorescent dye DiSC3 (5). Cells were treated at time 0 with DMSO, JD1 [70 μM], or D66. Data were normalized to DMSO at time 0 and corrected for the quenching effect of D66 (FIG. 6A, B) B) Cell membrane permeability was monitored by PI fluorescence. Cells were treated at time 0 with DMSO, SDS [0.005%] or D66. Samples were processed at the time points shown. A one-way ANOVA with a Dunnet's multiple comparison test, * P<0.005. C-F) Growth curves and kill-curves of cells treated at time 0 with either DMSO or D66. Culture aliquots were monitored for OD600 (C, E) or plated for enumeration of CFU (D, F). Data are presented as fold change. Mean and SEM of three biological replicates with technical triplicates are shown in all panels.
Bacterial Membrane potential assays: Membrane potential was measured using the potentiometric fluorescent probe DiSC3 (5) (Invitrogen). Mid-log phase cells were diluted to an OD600 of 0.4. […] Plates were monitored (ex650/em680 nm) on a BioTek Synergy H1 plate reader. After baseline fluorescence was recorded, compound was added to the desired final concentration and measurements were recorded for an additional 30 minutes. […]

[2] = Murine tolerability after a single dose; type: in vivo, C57BL/6 mice; details: mice
Procedure: Murine pharmacokinetic analyses and infections: Three female C57BL/6 mice were injected intraperitoneally (IP) with 50 mg/kg of D66 formulated in DMSO (50 μL). […] Three mice were initially dosed and observed for 24 hours to determine tolerability. […] Plasma D66 levels were measured using a liquid chromatography coupled to tandem mass spectrometry (LC/MS/MS) assay by the University of Colorado Cancer Center Drug Discovery and Development Shared Resource. The assay used monitored the transition of D66 (376 m/z->176 m/z) and was linear from 1-1000 ng/ml with an accuracy and precision of 90.3%+10.4% (% CV) based on quality control (QC) samples included with analyzed unknown samples.

staphylococcal strains = assay: MIC95 quoted for staphylococcal persister and biofilm experiments; type: cell-based; details: staphylococcal strains; read-out: MIC95
Procedure: A-D) Overnight cultures of the indicated strains were treated at time 0 with DMSO, ciprofloxacin [4 μg/mL], vancomycin [10 μg/mL], or the corresponding MIC95 concentration of D66 (1x MIC95=130 μM, 49 μg/mL). Cultures were plated for enumeration of CFU at time points indicated. Mean and SEM of three biological replicates. E) RAW 264.7 macrophage-like cells and HeLa cells were infected with S. aureus USA300, at MOIs of 0.5 and 2.5, respectively. Cells were treated two hours after infection with DMSO (gray circle on Y axis), or dilutions of D66 from 40 μM. After 8 hours of infection, cells were lysed and plated for enumeration of CFU. Mean and SEM of biological duplicates performed with technical triplicates each with six dilutions of D66. The IC50 value that was calculatable is indicated.
Biofilm formation was monitored after 18 hours in TSB with subinhibitory concentrations of DMSO, rifampin (1x MIC95=0.05 μg/mL), vancomycin (1x MIC95=1 μg/mL), or D66 (1x MIC95=130 μM). A-D) Crystal violet staining for accumulated biofilm mass measured at A595. Mean and […]

[3] = test system: 5-day-old staphylococcal biofilms; assay: 5-day-old staphylococcal biofilms; type: cell-based; details: biofilms established 5 days in TSB, treated 18 hours, crystal violet
Procedure: (A-D). For the indicated strain, biofilms established in TSB for 5-days were treated for 18 hours with DMSO, rifampin (1x MIC95=0.05 μg/mL), vancomycin (1x MIC95=1 μg/mL), or D66 (Table 1). The remaining biofilm extracellular matrix was stained with crystal violet and the A595 was measured. Mean and SEM of three biological replicates performed with technical triplicates are shown. Asterisks indicate P≤0.05 as determined by one-way ANOVA compared to DMSO.

O=C(Nc1cc(Cl)cc(Cl)c1)N1CCCN(Cc2ccccc2)CC1 [D66]
ability to reduce bacterial load in Hela cells [1]: little effect | reduction in CFU [1]: 5-10 fold | DiSC3(5) fluorescence (membrane voltage) (S. Typhimurium): rapidly increased the fluorescence of DiSC3 (5) in a dose-dependent manner | observable toxicity and gross pathological lesions in liver, kidney, and gastrointestinal tissues ([2]; 50 mg/kg IP, observed for 24 hours): lack of observable toxicity and gross pathological lesions | adverse effects (hunching, tachypnea, or abnormal ambulation) ([2]; single intraperitoneal dose of 50 mg/kg, after 24 hours): No adverse effects | MIC (staphylococcal strains): 130 µM and 49 µg/mL | reduction of 5-day-old biofilms [3]: minimally effective
